According to ChEMBL document CHEMBL4024702, “Covalent Modifiers: A Chemical Perspective on the Reactivity of α,β-Unsaturated Carbonyls with Thiols via Hetero-Michael Addition Reactions” (J Med Chem, 2017):

Assays:
[1] = Thiol reactivity of the compound in PBS/DMSO buffer assessed as pseudo-first order rate constant for adduct formation
518A2 = assay: Cytotoxicity against human 518A2 cells assessed as reduction in cell viability after 96 hrs by SRB asssay; assay type: functional, cell-based; settings: 518A2, 96 h
A-431 = assay: Cytotoxicity against human A431 cells assessed as reduction in cell viability after 96 hrs by SRB asssay; assay type: functional, cell-based; settings: A-431, 96 h
HT-29 = assay: Cytotoxicity against human HT-29 cells assessed as reduction in cell viability after 96 hrs by SRB asssay; assay type: functional, cell-based; settings: HT-29, 96 h
A549 = assay: Cytotoxicity against human A549 cells assessed as reduction in cell viability after 96 hrs by SRB asssay; assay type: functional, cell-based; settings: A549, 96 h
MCF7 = assay: Cytotoxicity against human MCF7 cells assessed as reduction in cell viability after 96 hrs by SRB asssay; assay type: functional, cell-based; settings: MCF7, 96 h
[2] = Glutathione reactivity of the compound in DMSO and phosphate buffer assessed as second order rate constant for adduct formation
[3] = Thiol reactivity of the compound in DMSO/PBS buffer assessed as adduct formation by measuring half life of parent compound by 1H NMR analysis; assay type: physicochemical
[4] = Cysteamine reactivity of the compound in TRIS-HCL assessed as second order rate constant at 40 uM and pH 7.4
[5] = Cytotoxicity against human H1HeLa cells after 2 days by XTT/PMS dye based assay; assay type: cell-based, H1-HeLa
rhinovirus B14 [6] = assay: Irreversible inhibition of human rhinovirus serotype 14 3C protease assessed as ratio of Kobs/I by spectrofluorimetric analysis
rhinovirus B14 [7] = assay: Antiviral activity against rhinovirus serotype 14 infected in human H1HeLa cells after 2 days by XTT/PMS dye based assay; assay type: functional, cell-based; settings: Rhinovirus B, H1-HeLa, 48 h
[8] = Cysteine reactivity of the compound assessed as second order rate constant by 1H NMR analysis
[9] = Glutathione reactivity of the compound in PBS buffer assessed as rate constant for 1,4-adduct formation at pH 7.4

Q: Which K [1] does the source give for `C=CS(=O)(=O)Nc1ccc(OC)cc1` here?
A: 2.8 ×10⁻² /s

Q: For `C=CS(=O)(=O)Nc1ccc([N+](=O)[O-])cc1`, which K [1] is on record?
A: 9 ×10⁻³ /s

Q: Which results are given for `CC1=CC[C@]23O[C@@]2(C)CC[C@@H]2[C@H](OC(=O)[C@H]2CN(C)C)[C@@H]13`?
A: IC50 (518A2): 5.54 µM; IC50 (A-431): 5.19 µM; IC50 (HT-29): 10.8 µM; IC50 (A549): 1.95 µM; IC50 (MCF7): 1.85 µM

Q: Which K [2] does the source give for `C/C=C(\C)C(C)=O` here?
A: 0.779 M⁻¹ s⁻¹

Q: For `C=CCOC(=O)C=C`, which K [2] is on record?
A: 19.6 M⁻¹ s⁻¹

Q: With `C=CS(=O)(=O)Nc1ccccc1` as the compound, how does the K [1] read?
A: 7.2 ×10⁻² /s

Q: Which IC50 (518A2) does the source give for `CC1=CC[C@]23O[C@@]2(C)CC[C@@H]2[C@H](OC(=O)[C@H]2CSCCO)[C@@H]13` here?
A: 16.9 µM

Q: And the IC50 (A-431)?
A: 12.8 µM

Q: And the IC50 (HT-29)?
A: 18.6 µM

Q: And the IC50 (A549)?
A: 12.8 µM

Q: And the IC50 (MCF7)?
A: 17.3 µM

Q: For `C/C=C(\C)C(=O)OC`, which K [2] is on record?
A: 0.007 M⁻¹ s⁻¹

Q: With `Cc1csc(C(C#N)C(SCCO)c2ccccc2)n1` (stereo not given) as the compound, how does the t1/2 [3] read?
A: < 1 min

Q: For `COc1ccc(C(=O)CC(SCCN)c2ccc(OC)c(OC)c2)c(OC)c1` (stereo not given), which K [4] is on record?
A: 0.19 M⁻¹ s⁻¹

Q: Which CC50 at 48 h [5] does the source give for `CCOC(=O)/C=C/[C@H](CCC(N)=O)NC(=O)[C@H](Cc1ccccc1)NC(=O)[C@H](CC(C)C)NC(=O)OCc1ccccc1` here?
A: > 320 µM

Q: With `CC(=O)N1CC/C(=C\[C@H](CCC(N)=O)NC(=O)[C@H](Cc2ccccc2)NC(=O)[C@H](CC(C)C)NC(=O)OCc2ccccc2)C1=O` as the compound, how does the Ratio (rhinovirus B14 [6]) read?
A: 156000 M⁻¹ s⁻¹

Q: What about the CC50 at 48 h [5] of the same compound?
A: > 100 µM

Q: And the EC50 (rhinovirus B14 [7])?
A: 0.71 µM

Q: With `CS(=O)(=O)/C=C/CNC(=O)c1ccccc1` as the compound, how does the K [1] read?
A: 3.9 ×10⁻³ /s

Q: Which K [4] does the source give for `COc1ccc(C(=O)C(I)C(SCCN)c2ccc(OC)c(OC)c2)c(OC)c1` (stereo not given) here?
A: 0.28 M⁻¹ s⁻¹

Q: With `C#CCOC(=O)C=C` as the compound, how does the K [2] read?
A: 51.4 M⁻¹ s⁻¹

Q: With `CC/C=C/C=O` as the compound, how does the K [2] read?
A: 28.3 M⁻¹ s⁻¹

Q: For `COc1ccc(C(=O)C(Cl)C(SCCN)c2ccc(OC)c(OC)c2)c(OC)c1` (stereo not given), which K [4] is on record?
A: 1.6 M⁻¹ s⁻¹

Q: Which results are given for `CC(C)C[C@H](NC(=O)OCc1ccccc1)C(=O)N[C@@H](Cc1ccccc1)C(=O)N[C@H](/C=C/C(=O)c1ccc([N+](=O)[O-])cc1)CCC(N)=O`?
A: Ratio (rhinovirus B14 [6]): 310000 M⁻¹ s⁻¹; CC50 at 48 h [5]: 32 µM; EC50 (rhinovirus B14 [7]): > 32 µM

Q: With `N#Cc1ccc(C(C#N)C(SCCO)c2ccccc2)cc1` (stereo not given) as the compound, how does the t1/2 [3] read?
A: 8.9 min

Q: Which K [1] does the source give for `C=CC(=O)Nc1ccc(OC)cc1` here?
A: 3.9 ×10⁻⁵ /s

Q: Which t1/2 [3] does the source give for `N#CC(C(N)=O)C(SCCO)c1ccccc1` (stereo not given) here?
A: < 1 min

Q: Which results are given for `C=C1C(=O)O[C@@H]2[C@H]3C(C)=CC[C@@]34O[C@@]4(C)CC[C@@H]12` [ARGLABIN]?
A: IC50 (518A2): 6.72 µM; IC50 (A-431): 4.48 µM; IC50 (HT-29): 7 µM; IC50 (A549): 2.21 µM; IC50 (MCF7): 2.33 µM

Q: Which results are given for `CC1=CC[C@]23O[C@@]2(C)CC[C@@H]2[C@H](OC(=O)[C@H]2CSc2ccccc2C(=O)O)[C@@H]13`?
A: IC50 (518A2): 16.9 µM; IC50 (A-431): 13.6 µM; IC50 (HT-29): 17.8 µM; IC50 (A549): 10.1 µM; IC50 (MCF7): 16.9 µM

Q: What does the source list for `CC(=O)/C=C/[C@H](CCC(N)=O)NC(=O)[C@H](Cc1ccccc1)NC(=O)[C@H](CC(C)C)NC(=O)OCc1ccccc1`?
A: Ratio (rhinovirus B14 [6]): 54000 M⁻¹ s⁻¹; CC50 at 48 h [5]: 60 µM; EC50 (rhinovirus B14 [7]): 2 µM

Q: For `C=C(C)C(=O)O[C@H]1CC2=C[C@@H](C[C@@]3(C)O[C@H]3[C@H]3OC(=O)C(CSC[C@H](N)C(=O)O)[C@@H]31)OC2=O` (stereo not given in full), which K [8] is on record?
A: 1.7 M⁻¹ s⁻¹

Q: Which results are given for `CC1=CC[C@]23O[C@@]2(C)CC[C@@H]2[C@H](OC(=O)[C@H]2CN2CCNCC2)[C@@H]13`?
A: IC50 (518A2): 15 µM; IC50 (A-431): 4.4 µM; IC50 (HT-29): 15.1 µM; IC50 (A549): 15.7 µM; IC50 (MCF7): 15.1 µM

Q: For `Cc1csc(C(C#N)C(SCCO)C2CC2)n1` (stereo not given), which t1/2 [3] is on record?
A: 4.8 min

Q: For `CC1=CCCC1=O`, which K [2] is on record?
A: 0.2 M⁻¹ s⁻¹

Q: For `COc1ccc(C(=O)NC/C=C/S(C)(=O)=O)cc1`, which K [1] is on record?
A: 2.8 ×10⁻³ /s

Q: With `CC1OC(O)CC1SC[C@@H](N)C(=O)O` (stereo not given in full) as the compound, how does the K [9] read?
A: 25 M⁻¹ s⁻¹

Q: For `COC(=O)/C=C/CNC(=O)c1ccc(OC)cc1`, which K [1] is on record?
A: 3.7 ×10⁻⁴ /s

Q: With `COc1ccc(C(=O)C(F)C(SCCN)c2ccc(OC)c(OC)c2)c(OC)c1` (stereo not given) as the compound, how does the K [4] read?
A: 0.017 M⁻¹ s⁻¹

Q: For `CCN(CC)c1ccc(C(=O)/C=C/[C@H](CCC(N)=O)NC(=O)[C@H](Cc2ccccc2)NC(=O)[C@H](CC(C)C)NC(=O)OCc2ccccc2)cc1`, which Ratio (rhinovirus B14 [6]) is on record?
A: 4500 M⁻¹ s⁻¹

Q: And the CC50 at 48 h [5]?
A: 25 µM

Q: And the EC50 (rhinovirus B14 [7])?
A: > 25 µM

Q: Which K [1] does the source give for `COC(=O)/C=C/CNC(=O)c1ccccc1` here?
A: 3.7 ×10⁻⁴ /s

Q: With `CS(=O)(=O)/C=C/CNC(=O)c1ccc([N+](=O)[O-])cc1` as the compound, how does the K [1] read?
A: 4 ×10⁻³ /s

Q: For `N#CC(c1ccncc1)C(SCCO)c1ccccc1` (stereo not given), which t1/2 [3] is on record?
A: 4.6 min

Q: Which K [2] does the source give for `CCC/C=C/C/C=C/C=O` here?
A: 22.8 M⁻¹ s⁻¹

Q: What does the source list for `CC1=CC[C@]23O[C@@]2(C)CC[C@@H]2[C@H](OC(=O)[C@H]2CN2CCSCC2)[C@@H]13`?
A: IC50 (518A2): 13.2 µM; IC50 (A-431): 16.9 µM; IC50 (HT-29): 16.2 µM; IC50 (A549): 4.76 µM; IC50 (MCF7): 13.4 µM

Q: Which K [2] does the source give for `CCCC/C=C/C(C)=O` here?
A: 11.4 M⁻¹ s⁻¹

Q: With `CC(C)C[C@H](NC(=O)OCc1ccccc1)C(=O)N[C@@H](Cc1ccccc1)C(=O)N[C@H](/C=C/C(=O)O)CCC(N)=O` as the compound, how does the Ratio (rhinovirus B14 [6]) read?
A: 30 M⁻¹ s⁻¹

Q: And the CC50 at 48 h [5]?
A: > 100 µM

Q: What about the EC50 (rhinovirus B14 [7]) of the same compound?
A: > 100 µM

Q: Which K [4] does the source give for `COc1ccc(C(=O)C(c2ccccc2)C(SCCN)c2ccc(OC)c(OC)c2)c(OC)c1` (stereo not given) here?
A: 0.0067 M⁻¹ s⁻¹

Q: Which results are given for `CC1=CC[C@]23O[C@@]2(C)CC[C@@H]2[C@H](OC(=O)[C@H]2CN2CCCCC2)[C@@H]13`?
A: IC50 (518A2): 14.3 µM; IC50 (A-431): 18.9 µM; IC50 (HT-29): 8.1 µM; IC50 (A549): 4.76 µM; IC50 (MCF7): 16.9 µM
